Assays:
786-O = test: Cell proliferation (Alamar Blue) assay, 786-O; type: cell-based, human; details: Homo sapiens, 786-0, 24 h, Table B-3, 786-O cells
Outline: (§1)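 Alamar Blue fluorescence (540 nm excitation, 590 nm emission, 1.5 h reagent incubation) measured viability after 24 h compound exposure at 37° C./5% CO2. Compounds spanned 10-0.0005 μM in 3-fold steps with 1% final DMSO, on cells pre-seeded 16-24 h at 5000/well. IC50 values were derived by variable-slope dose-response fitting.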

SJSA-1 = test: Cell proliferation (Alamar Blue) assay, SJSA-1; type: cell-based, human; details: Homo sapiens, SJSA-1, 24 h, Table B-3, head prints SJSB-1, 24 h, read-out: IC50 (μM) SJSB-1
Outline: as §1

A431 = test: Cell proliferation (Alamar Blue) assay, A431; type: cell-based, human; details: Homo sapiens, A-431, 24 h, Table B-3, A431 cells
Outline: as §1

[1] = CD-1 Mouse Whole Blood Stability Assay; type: in vitro ADME; details: Table B-6, incubation at 37° C.
[2] = Mouse plasma protein % unbound (ultracentrifuge method); type: in vitro ADME; details: for Mouse Plasma Protein % Unbound (Ultracentrifuge method, 4 h at 37° C.): Table B-6; for fraction unbound at 4 h: mouse, plasma, Table B-6, 4 h at 37° C.
[3] = CD-1, mouse, plasma, 2 μM
in vitro = details: CD-1, mouse, plasma
[4] = Kinetic solubility (PBS, pH 7.4); type: physicochemical; details: aqueous buffer, kinetic from dmso stock, Table B-4
[5] = Rat hepatocyte metabolic stability; type: in vitro ADME
[6] = Human hepatocyte metabolic stability; type: in vitro ADME
Human blood stability = type: in vitro ADME
[7] = Rat IV pharmacokinetics (2 mg/kg); type: in vivo; details: male, SD, plasma
Text: Institutional Animal Ethical Committee (IAEC) of Jubilant Biosys (IAEC/JDC/2019/188R (for Mice) and IAEC/JDC/2019/189R (for Rat) nominated by CPCSEA (Committee for the Purpose of Control and Supervision of Experiments on Animals) approved the mice and rat pharmacokinetic experiments. Male Balb/c mice (˜6-8 weeks old with body weight range of 22-25 g) and male SD rats (6-8 weeks old with body weight range of 200-250 g) were procured from Vivo Biotech, Hyderabad, India. Animals were quarantined in Jubilant Biosys Animal House for a period of 7 days with a 12:12 h light: dark cycles, and prior to the study the animals were stratified as per body weight.
B) Procedure for rat: Intravenous and oral pharmacokinetics study was done at a dose 2 and 10 mg/kg at dose volume of 2 and 10 mL/Kg. Serial blood sampling was done and at each time point (˜200 μL) were collected from retro-orbital plexus at 0.083 (Only for IV), 0.25, 0.5, 1, 2, 4, 8, 10 (only for PO) and 24 h. Blood samples were collected in tubes containing K2.EDTA as anticoagulant and centrifuged for 5 min at 10,000 rpm in a refrigerated centrifuge (Biofuge, Heraeus, Germany) maintained at 4° C. for plasma separation.
Group I (IV) received test compound intravenously by tail vein at 2 mg/Kg in solution formulation prepared using 30% Kolliphore EL in WFI; dose volume: 2 mL/Kg; strength: 1 mg/mL.
Blood concentration-time data of test compound was analyzed by non-compartmental method using Phoenix WinNonlin Version 8.1.

Q: What does the source list for `C#CC(=O)N1[C@@H](CCCC)Cc2c([nH]c3c(F)cc(F)cc23)[C@@H]1c1cncs1` [Compound B-23]?
A: IC50 (786-O): 0.507 µM; IC50 (SJSA-1): 0.431 µM; IC50 (A431): > 10 µM; CD-1 Mouse Whole Blood Stability % Remaining ([1]; 0 min): 100.0%; CD-1 Mouse Whole Blood Stability % Remaining ([1]; 30 min): 4.0%; CD-1 Mouse Whole Blood Stability % Remaining ([1]; 60 min): 0.5%; Mouse Plasma Protein % Unbound (Ultracentrifuge method, 4 h at 37° C.) [2]: Not stable

Q: Which IC50 (786-O) does the source give for `C#CC(=O)N1[C@@H](CCCC)Cc2c([nH]c3c(F)cc(F)cc23)[C@@H]1C1CCNCC1.Cl` [Compound B-26] here?
A: 0.177 µM

Q: And the IC50 (SJSA-1)?
A: 0.08 µM

Q: And the IC50 (A431)?
A: 7.5 µM

Q: And the “CD-1 Mouse Whole Blood Stability % Remaining” value ([1]; 0 min)?
A: 100.0%

Q: And the “CD-1 Mouse Whole Blood Stability % Remaining” value ([1]; 30 min)?
A: 44.7%

Q: What about the “CD-1 Mouse Whole Blood Stability % Remaining” value ([1]; 60 min) of the same compound?
A: 26.7%

Q: And the fraction unbound at 4 h [2]?
A: 0.061

Q: What does the source list for `C#CC(=O)N1[C@@H](CCCC)Cc2c([nH]c3c(F)cc(F)cc23)[C@@H]1c1ccc(N)cc1` [Compound B-54]?
A: IC50 (786-O): 0.046 µM; IC50 (SJSA-1): 0.069 µM; IC50 (A431): > 10 µM; % Bound [3]: 90.3%; % Remaining (t = 4 hr at 37 C.) [3]: 31.6%; fraction unbound at 2 μM (in vitro): 0.097

Q: Which “% Bound” value [3] does the source give for `C#CC(=O)N1[C@@H](CCCC)Cc2c([nH]c3c(F)cc(F)cc23)[C@@H]1C1CCCCC1` [Compound B-56] here?
A: 89.0%

Q: And the “% Remaining (t = 4 hr at 37 C.)” value [3]?
A: 56.7%

Q: And the fraction unbound at 2 μM (in vitro)?
A: 0.11

Q: For `C#CC(=O)N1[C@@H](CCCC)Cc2c([nH]c3c(F)cc(F)cc23)[C@@H]1c1ccc(C2COC2)cc1` [Compound B-29], which IC50 (786-O) is on record?
A: 0.034 µM

Q: What about the IC50 (SJSA-1) of the same compound?
A: 0.037 µM

Q: And the IC50 (A431)?
A: > 10 µM

Q: What about the “CD-1 Mouse Whole Blood Stability % Remaining” value ([1]; 0 min) of the same compound?
A: 100.0%

Q: What about the “CD-1 Mouse Whole Blood Stability % Remaining” value ([1]; 30 min) of the same compound?
A: 18.0%

Q: And the “CD-1 Mouse Whole Blood Stability % Remaining” value ([1]; 60 min)?
A: 3.9%

Q: What about the “Mouse Plasma Protein % Unbound (Ultracentrifuge method, 4 h at 37° C.)” value [2] of the same compound?
A: Not stable

Q: Which IC50 (786-O) does the source give for `O=C(CCl)N1[C@@H](CC2CC2)Cc2c([nH]c3ccccc23)[C@@H]1c1ccc(NC23CC4CC(CC(C4)C2)C3)cc1` [Compound B-36] here?
A: 0.001 µM

Q: And the IC50 (SJSA-1)?
A: 0.001 µM

Q: What about the IC50 (A431) of the same compound?
A: 6.7 µM

Q: And the solubility kinetic [4]?
A: < 1 µM

Q: What about the “rat hepatocytes extr. Ratio” value [5] of the same compound?
A: 0.7

Q: What about the “rat hepatocytes % met @ 180 min” value ([5]; 180 min) of the same compound?
A: 72%

Q: And the half-life ([5]; rat hepatocytes, read-out: rat hepatocytes T1/2)?
A: 107 min

Q: And the hepatocyte CLint ([5]; rat hepatocytes, read-out: rat hepatocytes h Clintr (μL/min/10^6 cells))?
A: 26 µL/min/1e6 cells

Q: What about the “human hepatocytes extr. Ratio” value [6] of the same compound?
A: 0.13

Q: What about the “human hepatocytes % met @ 180 min” value ([6]; 180 min) of the same compound?
A: 3.5%

Q: And the half-life ([6]; human hepatocytes, read-out: human hepatocytes T1/2)?
A: 2460 min

Q: And the hepatocyte CLint ([6]; human hepatocytes, read-out: human hepatocytes h Clintr (μL/min/10^6 cells))?
A: 1.1 µL/min/1e6 cells

Q: What about the “human blood stability % remaining” value (Human blood stability; 15 min) of the same compound?
A: ~100%_15

Q: What about the “human blood stability % remaining” value (Human blood stability; 30 min) of the same compound?
A: 96%_30

Q: And the “human blood stability % remaining” value (Human blood stability; 45 min)?
A: 82%_45

Q: What about the “human blood stability % remaining” value (Human blood stability; 60 min) of the same compound?
A: 77%_60

Q: What about the “human blood stability % remaining” value (Human blood stability; 120 min) of the same compound?
A: 51%_120

Q: And the AUC(0-t) ([7]; read-out: Rat IV-PK AUC (0-t))?
A: 431 ng·h/mL

Q: What about the clearance ([7]; read-out: Rat IV-PK CL) of the same compound?
A: 87 mL/min/kg

Q: What about the half-life ([7]; read-out: Rat IV-PK T1/2) of the same compound?
A: 30 min

Q: What about the Vd ([7]; read-out: Rat IV-PK Vd) of the same compound?
A: 3.5 L/kg

Q: What does the source list for `CCCC[C@H]1Cc2c([nH]c3c(F)cc(F)cc23)[C@H](c2ccc(N3CCN(C)CC3)c(C#N)c2)N1C(=O)CCl` [Compound B-27]?
A: IC50 (786-O): 0.005 µM; IC50 (SJSA-1): 0.005 µM; IC50 (A431): 2 µM; solubility kinetic [4]: < 1 µM; human blood stability % remaining (Human blood stability; 15 min): 38%_15; human blood stability % remaining (Human blood stability; 30 min): 4%_30; human blood stability % remaining (Human blood stability; 45 min): 1%_45; human blood stability % remaining (Human blood stability; 60 min): 0%_60; human blood stability % remaining (Human blood stability; 120 min): 0%_120; CD-1 Mouse Whole Blood Stability % Remaining ([1]; 0 min): 100.0%; CD-1 Mouse Whole Blood Stability % Remaining ([1]; 30 min): 78.0%; CD-1 Mouse Whole Blood Stability % Remaining ([1]; 60 min): 72.7%; fraction unbound at 4 h [2]: 0.078
